{"source": "patent US9040459B2", "about": "“Herbicidal compositions comprising aminopyralid and propanil” (Dow AgroSciences, LLC., priority 2012, dated 2015)", "test_in_all_cases": "Postemergence herbicidal activity under field conditions, visual weed control", "type_in_all_cases": "in vivo", "conditions_in_all_cases": "post-emergence field trial", "key": {"[1]": {"tested_on": "Eleusine indica L. Gaertn. (goosegrass, ELEIN)", "procedure": "(§1) These trials were conducted under field conditions in Espinal, Colombia. Trial sites were located in commercially grown fields of common rice (Oryza sativa). The rice crop was grown using normal cultural practices for fertilization, seeding, and maintenance to ensure good growth of the crop and the weeds. The trials were conducted using normal research methodology. Trial plots were 2 meters (m) wide by 5 m long. All treatments were applied using a randomized complete block trial design with 4 replications per treatment. The trial sites had naturally occurring populations of weeds. The weed spectrum included, but was not limited to, Cyperus iria L. (rice flatsedge, CYPIR), Digitaria horizontalis (Jamaican crabgrass, DIGHO), Eleusine indica L. Gaertn. (goosegrass, ELEIN), Portulaca oleracea L. (common purslane, POROL) and Phyllanthus niruri L. (gripeweed, PYLNI). The plots were treated with a postemergence foliar application 15 to 20 days after emergence of the rice.\n(§2) Treatments consisted of tank mixes of aminopyralid triisopropanolammonium salt (MILESTONE 240SL) and a commercially available formulation of propanil herbicide (STAM 480EC). The application volume was 200 liters per hectare (L/ha) of water. All applications were made using precision gas hand sprayers with a 3 m boom using flat fan 8002 nozzles to broadcast the treatments over the top of the rice and weeds.\n(§3) The treated plots and control plots were rated blind at various intervals after application. Ratings were based on Percent (%) Visual weed control, where 0 corresponds to no injury and 100 corresponds to complete kill.\n(§4) Colby's equation was used to determine the herbicidal effects expected from the mixtures (Colby, S. R. Calculation of the synergistic and antagonistic response of herbicide combinations. Weeds 1967 15, 20-22).\n(§5) The following equation was used to calculate the expected activity of mixtures containing two active ingredients, A and B: Expected=A+B−(A×B/100)\n(§6) A=observed efficacy of active ingredient A at the same concentration as used in the mixture;\n(§7) B=observed efficacy of active ingredient B at the same concentration as used in the mixture."}, "[2]": {"tested_on": "Cyperus iria L. (rice flatsedge, CYPIR)", "procedure": "as §1, §2, §3, §4, §5, §6, §7"}, "[3]": {"tested_on": "Phyllanthus niruri L. (gripeweed, PYLNI)", "procedure": "as §1, §2, §3, §4, §5, §6, §7"}, "[4]": {"tested_on": "Digitaria horizontalis (Jamaican crabgrass, DIGHO)", "procedure": "as §1, §2, §3, §4, §5, §6, §7"}, "[5]": {"tested_on": "Portulaca oleracea L. (common purslane, POROL)", "procedure": "as §1, §2, §3, §4, §5, §6, §7"}}, "data": [{"molecule": "Nc1cc(Cl)nc(C(=O)O)c1Cl", "note": "[Aminopyralid, 4-amino-3,6-dichloro-2-pyridinecarboxylic acid]", "values": [{"measurement": "Visual Weed Control (%) ELEIN 8 DAA Obs", "setting": "[1]; aminopyralid 4 g ae/ha alone", "result": 0, "unit": "%"}, {"measurement": "Visual Weed Control (%) ELEIN 8 DAA Obs", "setting": "[1]; aminopyralid 8 g ae/ha alone", "result": 0, "unit": "%"}, {"measurement": "Visual Weed Control (%) ELEIN 8 DAA Obs", "setting": "[1]; aminopyralid 16 g ae/ha alone", "result": 0, "unit": "%"}, {"measurement": "Visual Weed Control (%) CYPIR 15 DAA Obs", "setting": "[2]; aminopyralid 4 g ae/ha alone", "result": 4.5, "unit": "%"}, {"measurement": "Visual Weed Control (%) CYPIR 32 DAA Obs", "setting": "[2]; aminopyralid 4 g ae/ha alone", "result": 0, "unit": "%"}, {"measurement": "Visual Weed Control (%) CYPIR 32 DAA Obs", "setting": "[2]; aminopyralid 8 g ae/ha alone", "result": 10, "unit": "%"}, {"measurement": "Visual Weed Control (%) CYPIR 15 DAA Obs", "setting": "[2]; aminopyralid 16 g ae/ha alone", "result": 15, "unit": "%"}, {"measurement": "Visual Weed Control (%) CYPIR 32 DAA Obs", "setting": "[2]; aminopyralid 16 g ae/ha alone", "result": 10, "unit": "%"}, {"measurement": "Visual Weed Control (%) PYLNI 8 DAA Obs", "setting": "[3]; aminopyralid 4 g ae/ha alone", "result": 0, "unit": "%"}, {"measurement": "Visual Weed Control (%) PYLNI 8 DAA Obs", "setting": "[3]; aminopyralid 8 g ae/ha alone", "result": 3, "unit": "%"}, {"measurement": "Visual Weed Control (%) PYLNI 8 DAA Obs", "setting": "[3]; aminopyralid 16 g ae/ha alone", "result": 3, "unit": "%"}, {"measurement": "Visual Weed Control (%) DIGHO 8 DAA Obs", "setting": "[4]; aminopyralid 8 g ae/ha alone", "result": 0, "unit": "%"}, {"measurement": "Visual Weed Control (%) DIGHO 8 DAA Obs", "setting": "[4]; aminopyralid 16 g ae/ha alone", "result": 0, "unit": "%"}, {"measurement": "Visual Weed Control (%) POROL 8 DAA Obs", "setting": "[5]; aminopyralid 4 g ae/ha alone", "result": 36, "unit": "%"}, {"measurement": "Visual Weed Control (%) POROL 8 DAA Obs", "setting": "[5]; aminopyralid 8 g ae/ha alone", "result": 68, "unit": "%"}, {"measurement": "Visual Weed Control (%) POROL 8 DAA Obs", "setting": "[5]; aminopyralid 16 g ae/ha alone", "result": 93, "unit": "%"}]}, {"molecule": "CCC(=O)Nc1ccc(Cl)c(Cl)c1", "note": "[Propanil, N-(3,4-dichloro-phenyl)propanamide]", "values": [{"measurement": "Visual Weed Control (%) ELEIN 8 DAA Obs", "setting": "[1]; propanil 480 g ai/ha alone", "result": 48, "unit": "%"}, {"measurement": "Visual Weed Control (%) CYPIR 15 DAA Obs", "setting": "[2]; propanil 480 g ai/ha alone", "result": 35, "unit": "%"}, {"measurement": "Visual Weed Control (%) CYPIR 32 DAA Obs", "setting": "[2]; propanil 480 g ai/ha alone", "result": 20, "unit": "%"}, {"measurement": "Visual Weed Control (%) CYPIR 32 DAA Obs", "setting": "[2]; propanil 960 g ai/ha alone", "result": 58, "unit": "%"}, {"measurement": "Visual Weed Control (%) PYLNI 8 DAA Obs", "setting": "[3]; propanil 480 g ai/ha alone", "result": 45, "unit": "%"}, {"measurement": "Visual Weed Control (%) DIGHO 8 DAA Obs", "setting": "[4]; propanil 480 g ai/ha alone", "result": 51, "unit": "%"}, {"measurement": "Visual Weed Control (%) POROL 8 DAA Obs", "setting": "[5]; propanil 480 g ai/ha alone", "result": 49, "unit": "%"}]}]}
